For assay [1], the target named is T1, human EP4 (Homo sapiens (Human), UniProt P35408). The assay can be described thus: In vitro human EP4 functional antagonist activity (PGE2-stimulated cAMP, HTRF). It is filed as cell-based. The conditions noted are these: HEK293 cells expressing human EP4, PGE2 at EC80, n=5; read-out: IC50 measured at human EP4 (inhibition of PGE2-stimulated cAMP production). As for the experimental part:
Assays are conducted in recombinant HEK293 cells stably expressing human EP4 receptor. The cell lines are maintained by culturing in DMEM with high glucose and pyridoxine hydrochloride (Invitrogen) supplemented with 10% fetal bovine serum (FBS), 1 mM sodium pyruvate, 10 mM HEPES, 500 μg/mL geneticin and 2 mM L-glutamine. Confluent cultures are grown at 37° C. in an atmosphere containing 5% CO2. Cells are harvested using 2.5% Trypsin-EDTA, suspended in freeze media (FBS with 6% DMSO) at 10^7 cells/mL and aliquots are stored in liquid nitrogen. Just before assay, cells are thawed in DMEM, centrifuged, and resuspended in cAMP buffer.
The inhibition of PGE2-stimulated cAMP production by EP4 antagonists is measured using HTRF (Cisbio catalogue #62AM4PEB). An aliquot equivalent to 4000 cells is incubated with 50 μL cAMP assay buffer containing PGE2 in a concentration predetermined to produce an EC80 (0.188 nM PGE2 from Sigma, catalog # P5640-10 mg) and EP4 antagonists at room temperature for 20 minutes. cAMP assay buffer contains 500 mL HBSS, 0.1% BSA, 20 mM HEPES and 200 μM IBMX (Sigma 15879). […] The HTRF signal is detected using an EnVision® plate reader (Perkin-Elmer) to calculate the ratio of fluorescence at 665 nm to that at 620 nm. […]
Target sequence in this assay (P35408 whole entry): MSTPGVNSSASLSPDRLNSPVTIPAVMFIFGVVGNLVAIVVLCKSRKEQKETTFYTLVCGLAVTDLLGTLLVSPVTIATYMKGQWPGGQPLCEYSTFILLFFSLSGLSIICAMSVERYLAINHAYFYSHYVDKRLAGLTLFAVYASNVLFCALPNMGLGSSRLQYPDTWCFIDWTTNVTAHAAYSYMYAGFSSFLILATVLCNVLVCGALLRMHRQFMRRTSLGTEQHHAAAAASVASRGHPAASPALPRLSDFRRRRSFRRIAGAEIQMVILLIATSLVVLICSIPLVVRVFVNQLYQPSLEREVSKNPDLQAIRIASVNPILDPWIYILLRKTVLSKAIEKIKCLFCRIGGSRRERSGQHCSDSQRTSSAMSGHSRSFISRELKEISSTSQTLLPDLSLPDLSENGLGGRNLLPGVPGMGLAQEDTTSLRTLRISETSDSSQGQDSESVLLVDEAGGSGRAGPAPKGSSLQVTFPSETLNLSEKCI

The target of a further assay is human EP3 (isoform VI) (Homo sapiens (Human), UniProt P43115). As to the kind of experiment: In vitro binding to human EP3 ([3H]-PGE2 displacement, membranes). The note with it: HEK293 membranes, [3H]-PGE2, n = 1; read-out: hEP3, Ki. Here is the method: (§1) hEP1 and hEP4 membranes are prepared from recombinant HEK293 cells stably expressing the human EP1 (Genbank accession number AY275470) or EP4 (Genbank accession number AY429109) receptors. hEP2 and hEP3 membranes are prepared from HEK293 cells transiently transfected with EP2 (Genbank accession number AY275471) or EP3 (isoform VI: Genbank accession number AY429108) receptor plasmids. Frozen cell pellets are homogenized in homogenization buffer using a Teflon/glass homogenizer. Membrane protein is aliquoted and quick frozen on dry ice prior to storage at −80° C. Homogenization buffer contained 10 mM Tris-HCl, pH 7.4, 250 mM sucrose, 1 mM EDTA, 0.3 mM indomethacin and plus Complete™, with EDTA, obtained from Roche Molecular Biochemicals (Catalog Number 1 697 498).
(§2) Kd values for [3]H-PGE2 binding to each receptor are determined by saturation binding studies or homologous competition. […] Nonspecific binding is calculated by comparing binding in the presence and absence of 2 μM of PGE2. The membranes are harvested by filtration (TomTek harvester), washed 4 times with cold buffer (10 mM MES pH 6.0 with KOH, 10 mM MgCl2), dried in a 60° C. oven, and the radioactivity is quantified as counts per minute (CPM) using a TopCount detector. Percent specific binding is calculated as the percent of the binding in the absence of any inhibitor, corrected for binding in the presence of 2 μM of PGE2. […]

A further assay concerns the target human EP1 (Homo sapiens (Human), UniProt P34995). The assay can be described thus: In vitro binding to human EP1 ([3H]-PGE2 displacement, membranes). The note with it: HEK293 membranes, [3H]-PGE2, n = 1; read-out: hEP1, Ki. Here is the method: as §1, §2
Another assay concerns the target human EP2 (Homo sapiens (Human), UniProt P43116). As to the kind of experiment: In vitro binding to human EP2 ([3H]-PGE2 displacement, membranes). The note with it: HEK293 membranes, [3H]-PGE2, n = 2; read-out: hEP2, Ki. Here is the method: as §1, §2
Assay [2] deals with T1, human EP4. As to the kind of experiment: In vitro binding to human EP4 ([3H]-PGE2 displacement, membranes). The conditions noted are these: HEK293 membranes, [3H]-PGE2, n = 3; read-out: hEP4, Ki. As for the experimental part: as §1, §2
Target sequence in this assay (P35408 whole entry, looked up): as the sequence (P35408 whole entry) above
Assay [3] concerns the target T1, human EP4. As to the kind of experiment: In vitro antagonist activity in human whole blood (reversal of PGE2 inhibition of LPS-induced TNFα production). In kind it is cell-based. The conditions noted are these: LPS 10 μg/mL with 10 nM PGE2, geometric mean±SD, n=11, read-out: IC50 in human blood TNFα induction assay. The text has this:
The inhibitory effects of PGE2 on LPS-induced TNFα production from macrophages/monocytes are believed to be mediated by EP4 receptors (See Murase, A., et al., Life Sciences, 82:226-232 (2008)). The ability of the compound of Example 1 to reverse the inhibitory effect of PGE2 on LPS-induced TNFα production in human whole blood is an indicia of functional activity.
Blood is collected from normal volunteer donors into sodium heparin vacutainer tubes. Donors have not taken NSAIDs or celecoxib within 48 hours or glucocorticoids within two weeks prior to the donation. All tubes/donor are pooled into 50 mL Falcon conical centrifuge tubes and 98 μL/well is distributed into 96-well tissue culture plates (Falcon 3072). […] TNFα levels in 2 μL plasma are quantified by a commercially available enzyme immunoassay (R&D Systems DY210), using Immulon 4 HBX plates (Thermo 3855) and 3,3′,5,5′ tetramethylbiphenyl-4,4′-diamine substrate (KPL 50-76-03). The plates are read at A450-A650 on a plate reader (Molecular Devices Versamax) using SOFTmaxPRO (v. 4.3.1) software. IC50s are calculated using Graphpad Prism (v. 4) nonlinear regression, with sigmoidal dose response curve fitting. Results are expressed as the geometric mean±standard deviation; n=number of independent determinations.
Target sequence in this assay (P35408 whole entry, looked up): as the sequence (P35408 whole entry) above

In the next assay the target is rat EP4 (Rattus norvegicus (Rat), UniProt P43114). As to the kind of experiment: In vitro rat EP4 functional antagonist activity (PGE2-stimulated cAMP, HTRF). It is filed as cell-based. The note with it: HEK293 cells expressing rat EP4, PGE2 at EC80, n=1; read-out: IC50 measured at rat EP4 (inhibition of PGE2-stimulated cAMP). Here is the method: Rat EP4 cDNA (Genebank Accession# NM_03276) is cloned into pcDNA 3.1 vector and subsequently transfected in HEK293 cells for receptor expression. Rat EP4 stable clone is scaled up and then frozen down as cell bank for future compounds screening. To test EP4 antagonist compounds in rEP4 cells, thaw the frozen cells and then resuspend cells in cAMP assay buffer. The cAMP buffer is made by HBSS without Phenol Red (Hyclone, SH30268) supplemented with 20 mM HEPES (Hyclone, SH30237), 0.1% BSA (Gibco, 15260) and 125 μM IBMX (Sigma, 15879). The cells are plated into 96-well half area flat-bottom polystyrene black plates (Costar 3694). Compounds are serial diluted with DMSO to give 10-point concentration response curves. Then diluted compounds are added into cAMP assay buffer which contains PGE2 (Cayman 14010, in a concentration predetermined to produce an EC80) at ratio of DMSO/buffer at 1/100. The cells are treated with compounds in the presence of PGE2 (EC80 concentration) for 30 minutes at room temperature. The cAMP levels generated from the cells are quantified by a cAMP HTRF assay kit (Cisbio 62AM4PEC). The plates are read on an EnVision plate reader using HTRF optimized protocol (PerkinElmer). IC50s are calculated using Graphpad Prism (v. 4) nonlinear regression, sigmoidal dose response curve fitting.
(In TR-FRET formats the signal depends on donor and acceptor labels being close together.)

Some results are limits rather than exact numbers.

human EP1, sequence (P34995 whole entry): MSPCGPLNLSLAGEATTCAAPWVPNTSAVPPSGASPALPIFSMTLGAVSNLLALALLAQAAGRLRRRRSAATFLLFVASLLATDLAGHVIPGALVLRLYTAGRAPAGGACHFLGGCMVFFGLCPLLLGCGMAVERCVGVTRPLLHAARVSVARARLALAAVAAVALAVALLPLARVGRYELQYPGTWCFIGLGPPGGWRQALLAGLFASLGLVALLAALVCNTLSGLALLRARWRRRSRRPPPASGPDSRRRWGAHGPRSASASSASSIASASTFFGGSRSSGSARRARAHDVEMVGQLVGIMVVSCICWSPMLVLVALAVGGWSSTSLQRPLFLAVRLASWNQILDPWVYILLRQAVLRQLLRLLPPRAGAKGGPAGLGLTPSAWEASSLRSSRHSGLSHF
rat EP4, sequence (P43114 whole entry): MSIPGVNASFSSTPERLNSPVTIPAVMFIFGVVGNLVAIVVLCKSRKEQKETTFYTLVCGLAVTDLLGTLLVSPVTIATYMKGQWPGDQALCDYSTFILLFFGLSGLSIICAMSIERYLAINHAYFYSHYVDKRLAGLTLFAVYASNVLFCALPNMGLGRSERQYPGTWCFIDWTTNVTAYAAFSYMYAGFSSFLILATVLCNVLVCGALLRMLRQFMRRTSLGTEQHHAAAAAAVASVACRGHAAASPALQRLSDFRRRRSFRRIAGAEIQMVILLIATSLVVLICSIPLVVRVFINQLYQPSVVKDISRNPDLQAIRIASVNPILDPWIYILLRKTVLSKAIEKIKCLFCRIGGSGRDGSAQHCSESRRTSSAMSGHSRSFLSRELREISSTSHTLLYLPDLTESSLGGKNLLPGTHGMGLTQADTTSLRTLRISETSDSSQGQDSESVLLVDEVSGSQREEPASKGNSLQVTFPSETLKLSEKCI
human EP2, sequence (P43116 whole entry): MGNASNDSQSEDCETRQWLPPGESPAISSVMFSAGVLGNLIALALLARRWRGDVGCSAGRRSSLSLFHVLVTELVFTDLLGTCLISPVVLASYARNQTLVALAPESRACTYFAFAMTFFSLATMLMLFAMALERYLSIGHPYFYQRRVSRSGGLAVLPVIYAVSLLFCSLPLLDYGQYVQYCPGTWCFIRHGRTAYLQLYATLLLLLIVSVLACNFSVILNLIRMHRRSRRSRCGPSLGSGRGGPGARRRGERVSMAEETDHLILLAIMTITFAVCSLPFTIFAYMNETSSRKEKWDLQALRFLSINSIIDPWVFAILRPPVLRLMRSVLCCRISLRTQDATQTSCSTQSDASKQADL
human EP3 (isoform VI), sequence (P43115 other isoform, or with tags, fused parts or gaps): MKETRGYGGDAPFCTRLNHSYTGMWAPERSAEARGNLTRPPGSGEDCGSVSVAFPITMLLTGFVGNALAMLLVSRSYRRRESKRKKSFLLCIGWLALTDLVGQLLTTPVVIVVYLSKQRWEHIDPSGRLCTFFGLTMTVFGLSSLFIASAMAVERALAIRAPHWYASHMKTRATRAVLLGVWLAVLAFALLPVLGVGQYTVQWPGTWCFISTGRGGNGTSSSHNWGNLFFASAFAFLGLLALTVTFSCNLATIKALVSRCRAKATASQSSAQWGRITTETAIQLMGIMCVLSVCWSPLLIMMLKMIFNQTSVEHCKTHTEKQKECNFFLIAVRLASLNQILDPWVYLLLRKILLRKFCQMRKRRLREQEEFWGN

For orientation: IC50 means the point on the concentration scale where inhibition reaches its midpoint. Broadly, the Ki is a dissociation constant, usually derived from enzyme kinetics or from competition with a known ligand. Turning to `CC(C)[C@@H](OCCOc1ccccc1)C(=O)N[C@@H](C)c1ccc(C(=O)O)cc1` [Example 1, 4-[(1S)-1-[[(2R)-3-methyl-2-(2-phenoxyethoxy)butanoyl]amino]ethyl]benzoic acid], the IC50 at human EP4 [1] amounted to 2.2 ± 1.7 nM; on human EP4 [3], 20 ± 24 nM; on rat EP4, 2 nM. Besides, the Ki at human EP3 (isoform VI) is over 12700 nM; at human EP1, over 17400 nM; on human EP2, 261 ± 108 nM; on human EP4 [2], 0.45 ± 0.26 nM.

For the origin of these results see patent publication US9000043B2, “Phenoxyethoxy compounds” (Eli Lilly and Company, priority 2013, dated 2015).
